# Legend:
# [1] = Analysis of the mixed solution (infrared nitrite peak, visible UV spectrum); assay type: physicochemical
# [2] = test system: smooth muscle of the corpora cavernosa of rats; assay: Relaxation/contraction of rat corpus cavernosum tissue samples (force displacement transducer); assay type: cell-based, Wistar-type rats; conditions: for relaxation of the tissue of the corpora cavernosa: tissue constricted with norepinephrine, scalar solutions 10^-5 M to 10^-3 M
# From the text: In particular, this model is used for planning experiments aimed at checking the vasodilatory action of NO on vascular smooth muscle cells, since the methodology presented by the authors allows samples of corpus cavernosum tissue to be obtained from rats, on which studies of response to various exogenous molecules can be conducted, to detect their relaxation/contraction effects on smooth muscle cells.
# The work we selected and the experimental model on which we based our observations can easily be traced in the following work: G. Italiano, A. Calabrò and F. Pagano of the Urology Institute of Padua University, published in Pharmacology Therapeutics (Vol 30 no 4, 1994 pp. 325-334).
# We used 20 adult Wistar-type rats weighing between 175 and 200 g; after having sacrificed the rats we obtained corpus cavernosum tissues as described by the methods and placed these in a Krebs solution (in mM: 118 NaCl, 4,7 KCI, 1,2 KH2PO4, 1,2 MgSO4, 1,5 CaCl2, 25 NaHCO3, 11 glucose).
# A single sample was taken from each rat.
# The excised tissues were then put in 10 mL Krebs solution and held in place by two metal arms to allow assessment of any changes in the forces observed and assessed by the Grass FT03 model (using a force displacement transducer apparatus to assess the muscle tension of tissues, calibrated in mN). The saline solution containing the tissues (Krebs solution) was kept at pH 7.4 ±0.1 and at 37°C, with oxygenation using a mixture of 95% oxygen and 5% carbon dioxide.
# [3] = test system: rat model with type 1 diabetes induced by streptozotocin; assay: In-vivo test of sexual function in diabetic rat models; set-up: species or system male Wistar rats
# Procedure: Next we tested the possible beneficial effects of SNO-pantetheine on sexual function in a rat model with type 1 diabetes induced by streptozotocin, which is typically accompanied by deficit of sexual activity.
# In short, male Wistar rats were assigned to a cage (45 × 50 × 35 cm) covered in glass and lit with red light. Training took place every day after 5 pm for about 30 min, and after 10 minutes of acclimatisation a female rat in an oestrogenic phase was introduced into the cage. We then observed the sexual behaviour of diabetic rats vs. the relevant controls by measuring standard parameters (Burnett et al., 1995).
compound,measurement,setting,value
O=C(O)CCCCC1CCSS1 (stereo not drawn) [alpha lipoic acid],"results of the reaction compared with pantetheine (nitrite consumption, S-nitroso compound formation)",[1]; alpha lipoic acid used as SH group donor instead of pantetheine,comparable results
"NC[C@H](O)c1ccc(O)c(O)c1 [norepinephrine, reference compound]",constriction,"[2]; scalar solutions 10^-8 M to 10^-3 M, Krebs solution pH 7.4, 37°C",about 1.5 mN
S-nitrosothiol of alpha lipoic acid,relaxation of the tissue of the corpora cavernosa,[2],very similar to that of the S-nitrosothiol of pantetheine
"CC(C)(CO)[C@@H](O)C(=O)NCCC(=O)NCCSN=O [SNO-pantetheine, S-nitrosothiol of pantetheine]",nitrosothiol remains sufficiently stable,"[1]; at room temperature, after mixing of phases A and B",more than 1 hour
same,relaxation of the tissue of the corpora cavernosa,[2],the effect of the norepinephrine was cancelled out
same,EL (Ejaculation latency),"[3]; Day 0, topical application",423.2 ± 12.5 s
same,IF (Introduction frequency),"[3]; Day 0, topical application",11.2 ± 0.9 number
same,IL (Introduction latency),"[3]; Day 0, topical application",52.3 ± 3.9 s
same,MF (Mating frequency),"[3]; Day 0, topical application",12.0 ± 1.7 number
same,ML (Mating latency),"[3]; Day 0, topical application",42.5 ± 2.9 s
same,PEI (Post-ejaculatory interval),"[3]; Day 0, topical application",343.3 ± 10.9 s
same,EL (Ejaculation latency),"[3]; Day 30, topical application",375.8 ± 10.8 s
same,IF (Introduction frequency),"[3]; Day 30, topical application",14.5 ± 0.8 number
same,IL (Introduction latency),"[3]; Day 30, topical application",44.7 ± 4.2 s
same,MF (Mating frequency),"[3]; Day 30, topical application",11.2 ± 0.3 number
same,ML (Mating latency),"[3]; Day 30, topical application",34.3 ± 2.5 s
same,PEI (Post-ejaculatory interval),"[3]; Day 30, topical application",386.2 ± 14.3 s
